PMC5510868 (PLoS ONE, 2017)
“Also recorded” adds a separate entry of the source. Where two headings read alike, the source gives them in different places.

What was measured:
[1] = Serum metabolite concentrations and parent compound/metabolite ratios at baseline and in the third trimester (TDM, linear mixed model); conditions: for Change of parent compound or metabolite serum concentration in pregnancy (in words): analyses with metabolite data (Table 3); for Change from baseline conc., Estimate (parent compound or metabolite) / Parent compound / metabolite ratio (PMR), change from baseline, estimate: baseline to third trimester (gestational week 34); for Baseline conc., Estimate (parent compound or metabolite) / Parent compound / metabolite ratio (PMR), baseline estimate: day 0 (non-pregnant); for Baseline conc., Estimate (parent compound or metabolite) / Loge serum concentration, Intercept estimate (parent compound or metabolite): only analyses with metabolite data; for Baseline conc., Estimate (parent compound or metabolite): dose-adjusted to DDD; for Loge serum concentration, Intercept estimate (parent compound or metabolite) / Loge serum concentration, Change per gestational week estimate (parent compound or metabolite): loge-transformed; for Loge serum concentration, Intercept estimate (parent compound or metabolite): baseline (day 0 of pregnancy); for Loge serum concentration, Change per gestational week estimate (parent compound or metabolite) / Loge PMR, Change per gestational week estimate: per week of pregnancy; for Parent compound / metabolite ratio (PMR), third trimester estimate: gestational week 34; for Loge PMR, Intercept estimate / Loge PMR, Change per gestational week estimate: loge-transformed parent compound/metabolite ratio; for Loge PMR, Intercept estimate: baseline; for Parent compound / metabolite ratio in mid third trimester lower than baseline: value printed as size of the decline
Description: (§1) Quantification of the drug concentrations was performed with liquid chromatography-mass spectrometry/tandem mass spectrometry (LC-MS/LC-MS/MS). […] In brief, the drugs were extracted from serum by liquid-liquid extraction, using a mixture of hexane, acetonitrile and/or butanol, or dichloromethane and isopropanol. Thereafter, the analytes were separated on C18 columns using methanol, acetonitrile, formic acid or ammonium acetate as mobile phases, and quantified on LC-MS or LC-MS-MS systems. Calibration curves were constructed for each assay with drug-free human serum by the addition of varying concentrations of the antidepressants and their respective metabolites.
(§2) Serum concentrations in ng/mL were divided by the daily dose used by the person at the time of sampling, providing a serum concentration/dose ratio, and then multiplied by the defined daily dose (DDD), which is the assumed average maintenance dose per day for that drug used for its main indication in adults [28]. […] All concentrations presented and discussed in this article, including tables and figures, are dose-adjusted to the DDD of the drug.
(§3) For drugs where both the parent drug and the metabolite were measured, parent drug/metabolite concentration ratios during pregnancy were compared to baseline values as described above; ratios were loge-transformed and fitted into a linear mixed model, estimating the baseline ratios and the effect of each gestational week.
(§4) All model parameters, including variance components, were estimated by the method of maximum likelihood using STATA 13 command “mixed”. […] P values less than 0.05 were considered statistically significant.

[2] = cited from earlier work
[3] = Dose-adjusted serum antidepressant concentrations across pregnancy compared to the women's own baseline (routine TDM, LC-MS, linear mixed model); format: in vivo, human; conditions: for Serum concentration in pregnancy as share of pre-pregnancy levels: drop to about this share of pre-pregnancy levels; for Serum concentration in third trimester lower than baseline (reduction): mid third trimester (gestational week 34) vs baseline, value given as size of the reduction; for Change of serum concentration in pregnancy compared to baseline (in words): fluoxetine and venlafaxine = active moiety
Description: After obtaining approval from the Regional Committee for Medical and Health Research Ethics in Mid Norway, the Norwegian Centre for Research Data (Data Protection Official), the Norwegian Directorate of Health and the Medical Birth Registry of Norway (MBRN) publication council, serum concentration data for antidepressants were collected from the two largest TDM services for psychotropic drugs in Norway (i.e. Department of Clinical Pharmacology at St. Olav University Hospital in Trondheim, and Center for Psychopharmacology at Diakonhjemmet Hospital in Oslo). […] The antidepressant TDM data contain serum concentration measurements taken in a naturalistic setting from psychiatry inpatients and outpatients. In addition to measured serum concentrations, the databases contain information obtained from the requisition forms, such as the prescribed antidepressant dose, time of last drug intake, time of blood sampling, and types and doses of concomitant drugs.
First, a combined laboratory TDM file was created, containing all serum concentration measurements (for any drug) in the period October 1999 –December 2011 for all women of reproductive age (i.e. born 1950–2000). […] Using the unique 11-digit identification number assigned to all individuals living in Norway, the MBRN could identify all pregnant women in the TDM data set. […] For the current study we retrieved the following information: the personal identification number, the drug analysed, the measured drug serum concentration, time of last dose, time of sampling, drug dose, concomitant drug use, other clinical information, name of the responsible physician, gestational week at the time of sampling (calculated from the sampling date and the pregnancy onset date as determined by obstetric ultrasound if available, or by last menstruation), and date of delivery.
If the requisition form lacked information on drug dose the authors contacted the responsible physician, who attempted to obtain this information from the medical record. If we were unable to retrieve this information, the analysis was excluded.
Having identified the pregnant women and their individual pregnancy periods in the extracted data file, we used the original TDM databases to retrieve serum concentration measurements before and after pregnancy from the same women, to serve as baseline observations for each of the included subjects. […] These analyses were not used in the statistical model, only for visual comparison. The remaining 420 analyses were used for the statistical comparisons.
Since multiple measurements were available from the same patient a linear mixed model was used. […] Baseline measurements were set to gestational week 0 in the model. Then, the effect of gestational week on concentration compared to baseline could be estimated for each drug.
Data are presented as means with 95% confidence intervals.

[4] = Previous studies of antidepressant plasma/serum concentrations in pregnancy (literature quoted in the Discussion); format: in vivo, human; conditions: 0.3 ng/mL per gestational week applied to this study's data
[5] = in vivo
Description: as §1, §2, §3, §4

| Structure (SMILES) | Change of parent compound or metabolite serum concentration in pregnancy (in words) [1] | Change from baseline conc., Estimate (parent compound or metabolite) [1] | Baseline conc., Estimate (parent compound or metabolite) [1] | Loge serum concentration, Intercept estimate (parent compound or metabolite) [1] | Loge serum concentration, Change per gestational week estimate (parent compound or metabolite) [1] | Parent compound / metabolite ratio (PMR), change from baseline, estimate [1] | Parent compound / metabolite ratio (PMR), baseline estimate [1] | Parent compound / metabolite ratio (PMR), third trimester estimate [1] | Loge PMR, Intercept estimate [1] | Loge PMR, Change per gestational week estimate [1] | Change of serum concentration in pregnancy compared to baseline (in words) ([3]; dose-adjusted) | other results |
| --- | --- | --- | --- | --- | --- | --- | --- | --- | --- | --- | --- | --- |
| CN(C)CC(c1ccc(O)cc1)C1(O)CCCCC1 (stereo not drawn) [O-desmethylvenlafaxine] | did not change | -13% | 91.5 ng/mL | 4.516 | -0.004 | – | – | – | – | – | – | Change of metabolite levels in pregnancy (in words) ([2]; prospective study of seven pregnancies): no change |
| Fc1ccc([C@@H]2CCNC[C@H]2COc2ccc3c(c2)OCO3)cc1 [Paroxetine] | – | – | – | – | – | – | – | – | – | – | – | Serum concentration in pregnancy as share of pre-pregnancy levels [3]: about 50%; Serum concentration in third trimester lower than baseline (reduction) [3]: 51%; Concentrations in third trimester compared to postpartum (in words) ([2]; 12 pregnancies, no numbers provided, ref Brogtrop et al. [17]): lower concentrations in the third trimester compared to postpartum; Increase of maternal plasma concentration per gestational week ([2]; intermediate and poor CYP2D6 metabolizers): 0.6 ng/mL per gestational week; Decline of maternal plasma concentration per gestational week ([2]; ultrarapid or extensive CYP2D6 metabolizers, 74 pregnancies, ref Ververs et al. [20]): 0.3 ng/mL per gestational week; Reduction in week 34 to which the cited decline per week translates for the present data [4]: 30% |
| CN(C)CCCC1(c2ccc(F)cc2)OCc2cc(C#N)ccc21 (stereo not drawn) [Citalopram] | – | -39% | 32.3 ng/mL | 3.475 | -0.015 | -13% | 2.6 | 2.3 | 0.973 | -0.004 | remain largely unchanged | Change of parent compound / metabolite ratio in pregnancy (in words) ([1]; third trimester vs baseline): did not reach statistical significance; Serum concentration in third trimester lower than baseline (reduction) [3]: 24%; Third trimester concentrations lower than baseline values ([2]; 11 pregnancies, ref Heikkinen et al. [13]): 42%; Third trimester concentrations lower than baseline ([2]; two pregnancies, ref Sit et al. [19]): 26% |
| CNCCCC1(c2ccc(F)cc2)OCc2cc(C#N)ccc21 (stereo not drawn) [Desmethylescitalopram] | – | – | – | – | – | – | – | – | – | – | – | Loge serum concentration, Change per gestational week estimate (parent compound or metabolite) [5]: -0.004 |
| CNCC[C@H](Oc1ccc(C(F)(F)F)cc1)c1ccccc1 [S-fluoxetine] | – | – | – | – | – | – | – | – | – | – | – | Enantiomer concentration change in pregnancy, chiral analysis (in words) ([2]; in vivo): declined more than R-fluoxetine |
| NCCC(Oc1ccc(C(F)(F)F)cc1)c1ccccc1 (stereo not drawn) [Norfluoxetine] | remain largely unchanged | 0% | 83.7 ng/mL | 4.427 | 0.000 | – | – | – | – | – | – | – |
| COc1ccc(C(CN(C)C)C2(O)CCCCC2)cc1 (stereo not drawn) [Venlafaxine] | trend towards a statistically significant decline | -40% | 35.8 ng/mL | 3.577 | -0.015 | – | – | – | -0.927 | -0.011 | remain largely unchanged | Change of serum concentration in pregnancy compared to baseline (in words) ([3]; dose-adjusted, listed as venlafaxine): did not change significantly; also recorded: not statistically significant; Reduction in plasma levels in pregnancy compared to baseline ([2]; case report, ref Klier et al. [16]): more than 50%; Reduction in levels in pregnancy ([2]; prospective study of seven pregnancies, ref ter Horst et al. [24]): 13% |
| COCCCC/C(=N\OCCN)c1ccc(C(F)(F)F)cc1 [Fluvoxamine] | – | – | – | – | – | – | – | – | – | – | – | Serum concentration in pregnancy as share of pre-pregnancy levels [3]: about 50%; Serum concentration in third trimester lower than baseline (reduction) [3]: 56% |
| CN(C)CCC[C@@]1(c2ccc(F)cc2)OCc2cc(C#N)ccc21 [Escitalopram] | – | +24% | 8.4 ng/mL | 2.129 | 0.006 | +40% | 1.8 | 2.5 | 0.581 | 0.010 | did not change significantly; also recorded: not statistically significant; also recorded: remain largely unchanged; also recorded: close to zero | Parent compound / metabolite ratio (PMR), change from baseline, estimate ([1]; listed as escitalopram): 40%; concentration at 4 gestational week ([3]; female, human, serum, 10 mg/day, one analysis in week 4, dose-adjusted, read-out: Observed serum concentration, outlier not shown in Fig 2): 36 ng/mL; concentration at 5 gestational week ([3]; female, human, serum, 10 mg/day, one analysis in week 5, dose-adjusted, read-out: Observed serum concentration, outlier not shown in Fig 2): 40 ng/mL; Observed serum concentration, outlier not shown in Fig 2 ([3]; one analysis in week 0 (baseline), dose-adjusted): 36 ng/mL; Change of concentrations throughout pregnancy (in words) ([2]; five pregnancies, ref Sit et al. [19]): only minor declines or no change |

Second part, led by results:

| Change of parent compound or metabolite serum concentration in pregnancy (in words) [1] | Change from baseline conc., Estimate (parent compound or metabolite) [1] | Baseline conc., Estimate (parent compound or metabolite) [1] | Loge serum concentration, Intercept estimate (parent compound or metabolite) [1] | Loge serum concentration, Change per gestational week estimate (parent compound or metabolite) [1] | Parent compound / metabolite ratio (PMR), change from baseline, estimate [1] | Parent compound / metabolite ratio (PMR), baseline estimate [1] | Parent compound / metabolite ratio (PMR), third trimester estimate [1] | Loge PMR, Intercept estimate [1] | Loge PMR, Change per gestational week estimate [1] | Structure (SMILES) | Change of serum concentration in pregnancy compared to baseline (in words) ([3]; dose-adjusted) | other results |
| --- | --- | --- | --- | --- | --- | --- | --- | --- | --- | --- | --- | --- |
| – | -33% | 12.6 ng/mL | 2.534 | -0.012 | – | – | – | – | – | CNCCCC1(c2ccc(F)cc2)OCc2cc(C#N)ccc21 (stereo not drawn) [Desmethylcitalopram] | – | – |
| increasing levels | +120% | 18.4 ng/mL | 2.914 | 0.023 | – | – | – | – | – | N[C@H]1CC[C@@H](c2ccc(Cl)c(Cl)c2)c2ccccc21 [Desmethylsertraline] | – | – |
| decline | -31% | 77.7 ng/mL | 4.353 | -0.011 | -36% | 1.0 | 0.6 | -0.045 | -0.013 | CNCCC(Oc1ccc(C(F)(F)F)cc1)c1ccccc1 (stereo not drawn) [Fluoxetine] | did not change significantly; also recorded: not statistically significant; also recorded: remain largely unchanged; also recorded: no major decline | Parent compound / metabolite ratio in mid third trimester lower than baseline [1]: 36%; Third trimester concentrations of the active moiety lower than baseline ([2]; fluoxetine plus norfluoxetine, 11 pregnancies, ref Heikkinen et al.): 32% |
| increasing levels | +83% | 8.6 ng/mL | 2.147 | 0.018 | -20% | 0.5 | 0.4 | -0.764 | -0.006 | CN[C@H]1CC[C@@H](c2ccc(Cl)c(Cl)c2)c2ccccc21 [Sertraline] | statistically significant increase | Parent compound / metabolite ratio in mid third trimester lower than baseline [1]: 20%; Change of concentrations in pregnancy in previous studies (in words) ([2]; eight and six pregnancies): variable/non-significant observations |
